{"source": "patent US20230381142A1", "about": "“ANTILEISHMANIAL COMPOUNDS, COMPOSITIONS AND USE THEREOF” (TRUSTEES OF BOSTON UNIVERSITY, priority 2022, published 2023)", "key": {"[1]": {"system": "L. donovani intracellular amastigotes infecting THP-1 macrophages", "assay": "GSK intramacrophage L. donovani assay (LD AMMAC, inMac; Assay Conditions C)", "type": "cell-based", "conditions": "Leishmania donovani", "procedure,_shortened": "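L. donovani amastigotes within THP-1 macrophages; EC50 based on average intracellular amastigotes per infected cell (AMMAC). Infected-cell percentage (INFCELL) and host-cell number (MAC) also read, the latter as toxicity output.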"}, "[2]": {"assay": "Solubility in Fasted Simulated Intestinal Fluid (FaSSIF)", "type": "physicochemical", "conditions": "thermodynamic from solid", "description": "(§1) Solubility of compounds using ChemiLuminescent Nitrogen Detection (CLND) was measured as described. Solubility of compounds using Charged Aerosol Detection (CAD) was measured as described. Solubility of solid compounds in Fasted Simulated Intestinal Fluid (FaSSIF) was measured as described."}, "[3]": {"assay": "Artificial membrane permeability (AMP)", "type": "in vitro ADME", "conditions": "PAMPA, pH 7.4", "procedure,_shortened": "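Passive permeation through 1.8% phosphatidylcholine in 1% decane membrane, 50 mM phosphate buffer pH 7.4 on donor and receiver sides. After 45 min pre-shaking, compounds incubated 3 h at room temperature with shaking, in duplicate; donor and receiver solutions quantified by LC/MS.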"}, "Whole blood stability": {"assay": "Whole blood stability", "type": "in vitro ADME", "conditions": "criterion: no % reduction over 120 min"}, "host THP-1 macrophages": {"system": "host THP-1 macrophages", "assay": "GSK inMac assay, host cell toxicity readout (LD MAC)", "type": "cell-based, human", "procedure,_shortened": "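Intramacrophage L. donovani assay in THP-1 macrophages; host toxicity taken from host cell number per well, giving MAC EC50. Run alongside amastigote-per-cell and infected-cell readouts in the same wells.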"}, "[4]": {"assay": "Kinetic aqueous solubility by CLND", "type": "physicochemical", "conditions": "kinetic from dmso stock, high-throughput CLND", "description": "as §1"}, "[5]": {"assay": "Plasma protein binding (RED)", "type": "in vitro ADME", "description": "The unbound fraction of compound 1 in plasma was measured using a commercial RED (Rapid Equilibrium Dialysis) plate with inserts (Thermo) with a molecular weight membrane cut off of 8K. The relevant volume of spiked sample matrix was added into the corresponding sample chambers of the RED insert. Three volume equivalents of dialysis buffer were added to the buffer chamber. The dialysis plate was sealed and incubated at 37° C. on a plate shaker for approximately 4 h at 100 rpm. An equivalent volume was removed from each of the three buffer sample chambers and placed into its own well in a clean plate. A specific volume of control matrix was added to each buffer sample for matrix matching. Next, >3× volume of precipitation solvent (acetonitrile+internal standard) was added and the plate was centrifuged. A measured volume of the resulting supernatants was transferred into a clean plate and a specific volume of analytical grade water was added to all samples. Samples were analyzed using a compound-specific LC-MS/MS method to generate analyte peak area ratios which are representative of bound and free drug."}, "[6]": {"assay": "UCSD infection assay, host cell cytotoxicity (CC50)", "type": "cell-based", "conditions": "host macrophages infected with L. donovani; cytotoxicity against host macrophages"}, "[7]": {"assay": "Host THP-1 cell cytotoxicity in the CDIPD high content screen", "type": "cell-based, human", "conditions": "human", "description": "Assay Conditions B: THP-1 cells (human acute monocytic leukemia cell line—ATCC TIB202) were grown in RPMI supplemented with 10% Fetal Bovine Serum (FBS) and 50 μM 2-mercaptoethanol at 37° C. in 5% CO2. THP-1 were seeded in microwell plates at 5×10^5 cells/mL density and treated with 0.1 μM phorbol myristate acetate (PMA, Sigma) at 37° C. for 48 h for differentiation into adherent, non-dividing macrophages. After activation by PMA, cells were washed and incubated with complete RPMI medium containing stationary phase Leishmania promastigotes (L. major: strain LV39; L. donovani, strain 1S/Cl2D) at a 1:15 parasite-cell ratio. Compounds were added and incubated at 37° C. for 72 h. Cells were then washed with phosphate-buffered saline (PBS), fixed for 30 minutes with 4% formaldehyde, rinsed again with PBS, stained for 2 h with 4′,6′-diamidino-2-phenylindole (DAPI 300 nM) and finally washed with PBS. In a collaborative effort to identify new antileishmanial chemotypes with minimal host cell cytotoxicity, compounds from the Boston University Center for Molecular Discovery (BUCMD) screening collection were assessed in a phenotypic, high content primary screen at the University of California's Center for Discovery and Innovation in Parasitic Diseases (CDIPD) for the ability to inhibit growth of L. donovani intracellular amastigotes infecting THP-1 cells. […] Dose-response testing in L. donovani (both intracellular amastigotes and promastigotes) confirmed concentration-dependent growth inhibition of both morphologies of the parasite at low micromolar EC50 values for both compounds (Table 1)."}, "human serum albumin": {"molecular_target": "human serum albumin (Homo sapiens, UniProt P02768)", "sequence (P02768 25-609)": "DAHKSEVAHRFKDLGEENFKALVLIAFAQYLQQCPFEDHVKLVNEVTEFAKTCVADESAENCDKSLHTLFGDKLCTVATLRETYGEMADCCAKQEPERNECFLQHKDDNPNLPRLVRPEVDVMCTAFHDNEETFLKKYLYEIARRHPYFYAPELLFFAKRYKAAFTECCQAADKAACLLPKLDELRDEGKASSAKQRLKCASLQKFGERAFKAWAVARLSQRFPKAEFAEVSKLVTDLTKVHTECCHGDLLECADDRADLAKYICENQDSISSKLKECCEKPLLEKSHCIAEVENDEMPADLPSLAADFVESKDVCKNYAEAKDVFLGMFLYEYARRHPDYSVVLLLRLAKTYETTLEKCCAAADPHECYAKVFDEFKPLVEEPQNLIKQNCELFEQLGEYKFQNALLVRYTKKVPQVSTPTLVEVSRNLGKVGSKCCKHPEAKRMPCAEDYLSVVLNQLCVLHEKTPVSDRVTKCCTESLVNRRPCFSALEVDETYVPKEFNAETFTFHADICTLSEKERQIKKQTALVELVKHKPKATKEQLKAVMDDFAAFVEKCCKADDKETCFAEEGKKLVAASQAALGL", "assay": "Human serum albumin (HSA) binding, chromatographic", "type": "in vitro ADME", "description": "The percentage of compound bound to human serum albumin was measured using a chromatographic method as described. Briefly, each compound was assayed on an immobilized HSA column and gradient retention times measured, with chromatographic peak detection by UV. Each retention time was then converted to a % HSA bound value using a calibration set of compounds with a known % HSA binding."}, "[8]": {"assay": "Property forecast index (PFI = ChromLogD7.4 + aromatic rings)", "type": "physicochemical"}, "[9]": {"conditions": "growth inhibition of L. donovani intracellular amastigotes infecting THP-1 macrophages, read-out: LD AMMAC EC50"}, "[10]": {"conditions": "Homo sapiens, THP-1, cytotoxicity against host THP-1 macrophages"}}, "note": "Read-outs that look alike come from different tables or passages of the source.", "data": [{"smiles": "COc1ccc(N2C(=O)c3[nH]nc(CC(C)C)c3C2c2ccc(F)cc2)cc1", "note": "(racemic) [Compound 1, 4-(4-fluorophenyl)-3-isobutyl-5-(4-methoxyphenyl)-4,5-dihydropyrrolo[3,4-c]pyrazol-6(1H)-one]", "values": [{"measurement": "IC50", "setting": "[1]; THP-1", "value": 2.5, "unit": "µM"}, {"measurement": "EC50", "setting": "[1]; THP-1, GSK lead selection criteria, read-out: Antiparasitic activity EC50, L. donovani amastigotes", "value": 2.5, "unit": "µM"}, {"measurement": "EC50", "setting": "[1]; [9]", "value": 2.5, "unit": "µM"}, {"measurement": "solubility", "setting": "[2]", "value": 130, "unit": "µg/mL"}, {"measurement": "Papp at 3 h", "setting": "[3]", "value": 34.5, "unit": "×10⁻⁶ cm/s"}, {"measurement": "Whole blood stability", "setting": "Whole blood stability", "value": "Pass"}, {"measurement": "EC50", "setting": "host THP-1 macrophages; [10]", "value": 15.8, "unit": "µM"}, {"measurement": "EC50", "setting": "host THP-1 macrophages; cytotoxicity against host THP-1 macrophages, listed as rac-1", "value": 15.9, "unit": "µM"}, {"measurement": "solubility", "setting": "[4]; aqueous medium", "value": 107, "unit": "µM"}, {"measurement": "fraction unbound at 4 h", "setting": "[5]", "value": 0.025}, {"measurement": "CC50 at 72 h", "setting": "[6]", "value": "> 20", "unit": "µM"}, {"measurement": "CC50 at 72 h", "setting": "[7]", "value": "> 20", "unit": "µM"}, {"measurement": "HSA Binding", "setting": "human serum albumin", "value": 96.4, "unit": "%"}, {"measurement": "PFI", "setting": "[8]", "value": 8.4}]}, {"smiles": "COc1ccc(N2C(=O)c3[nH]nc(CC(C)C)c3C2c2ccccc2)cc1", "note": "(stereo not shown) [Compound 2]", "values": [{"measurement": "IC50", "setting": "[1]; THP-1", "value": 3.2, "unit": "µM"}, {"measurement": "EC50", "setting": "[1]; [9]", "value": 3.2, "unit": "µM"}, {"measurement": "Papp at 3 h", "setting": "[3]", "value": 37, "unit": "×10⁻⁶ cm/s"}, {"measurement": "EC50", "setting": "host THP-1 macrophages; [10]", "value": 31.6, "unit": "µM"}, {"measurement": "solubility", "setting": "[4]; aqueous medium (not further specified)", "value": 90, "unit": "µM"}, {"measurement": "CC50 at 72 h", "setting": "[7]", "value": "> 20", "unit": "µM"}, {"measurement": "HSA Binding", "setting": "human serum albumin", "value": 95.8, "unit": "%"}, {"measurement": "PFI", "setting": "[8]", "value": 8.4}]}]}
